Measurements: publication PMC9396645 (Frontiers in Chemistry, 2022)

Assay: Determination of plasma half-life in athymic nude mice
Type: in vivo, mouse
Conditions: athymic nude mice (n = 3), i.v. 4–6 MBq, biexponential fit, weighted overall half-life
Method: The radioligands ^68Ga-CA027 and ^68Ga-CA028 (4–6 MBq) were injected into athymic nude mice (n = 3) via the lateral tail vein. Blood (25–50 μL) was collected 2, 5, 15, 30, 45, 60, 90, and 120 min post injection via either the tail or saphenous vein, and the activity of the blood samples was determined in a γ-counter. Both procedures furnished consistent and reproducible results. The percentage of the injected dose per gram of tissue (%ID/g) was calculated, and the resulting values were plotted as a function of time. A biexponential decay curve was used as a fit function, accounting for a short blood half-life (a-phase) during the initial phase directly after injection and a longer blood half-life during the terminal phase (b-phase). The data analysis program Prism 7™ was used to determine both half-lives, t1/2-a and t1/2-b, as well as their relative contribution (in %) to the overall half-life (t1/2). Subsequently, both half-lives were weighed according to their relative contribution to the overall blood half-life t1/2. At the time of tracer injection (t = 0), it was assumed that %ID/g = 50. The injected dose at t = 0 equals 100%, divided by the total mass of blood (approximately 2 g in the case of 6‒8 weeks old mice) gives %ID/g t=0 = 50.

For O=C([O-])CN1CCN(CC(=O)[O-])CCN(Cc2ccc(C(=O)NCC3CCC(C(=O)NC(Cc4ccc5ccccc5c4)C(=O)NCCCCC(NC(=O)NC(CCC(=O)O)C(=O)O)C(=O)O)CC3)cc2)CCN(CC(=O)[O-])CC1.[68Ga+3] (stereo not shown) [^68Ga-CA028], the “plasma half-life t1/2” value was 5.2 min.
